This note sets out measurements from BindingDB's records for patent US20230295119 (Gossamer Bio Services, 2023).

Assay [1] addresses Tyrosine-protein kinase JAK1 (Homo sapiens, UniProt P23458). Kind of assay: JAK1, JAK2, and JAK3 Activity. As to the method:
(§1) Compounds described herein were tested for the ability to inhibit activity of human JAK1, JAK2 and JAK3, which was achieved using TR-FRET assays. Briefly, the Kinases JAK1 (2.5 nM), JAK2 (0.025 nM) and JAK3 (0.0125 nM) were incubated with a series of concentrations of the test compound in the presence of […] (biotin-ahx- […]-CONH2), 2 nM Eu-labeled anti-pTYRPY20 and 80 nM Streptavidin APC. After 30 min incubation at RT, ATP ([…] respectively for JAK1, JAK2 and JAK3) was added to start the reaction, and incubated for 80 min at RT. The reaction was stopped by adding detection buffer and incubated for a further 60 min at RT. The samples were analyzed using Envision to calculate % inhibition at each of the series of concentrations of the test compound. The IC50 value of the compounds for each of the kinases were calculated using XLFit software.

Assay [2] concerns the target Tyrosine-protein kinase JAK2 (Homo sapiens, UniProt O60674). The assay can be described thus: JAK1, JAK2, and JAK3 Activity. As for the experimental part: as §1
Assay [3] addresses T1, Tyrosine-protein kinase JAK3 (Homo sapiens, UniProt P52333).
T1 sequence (P52333 whole entry): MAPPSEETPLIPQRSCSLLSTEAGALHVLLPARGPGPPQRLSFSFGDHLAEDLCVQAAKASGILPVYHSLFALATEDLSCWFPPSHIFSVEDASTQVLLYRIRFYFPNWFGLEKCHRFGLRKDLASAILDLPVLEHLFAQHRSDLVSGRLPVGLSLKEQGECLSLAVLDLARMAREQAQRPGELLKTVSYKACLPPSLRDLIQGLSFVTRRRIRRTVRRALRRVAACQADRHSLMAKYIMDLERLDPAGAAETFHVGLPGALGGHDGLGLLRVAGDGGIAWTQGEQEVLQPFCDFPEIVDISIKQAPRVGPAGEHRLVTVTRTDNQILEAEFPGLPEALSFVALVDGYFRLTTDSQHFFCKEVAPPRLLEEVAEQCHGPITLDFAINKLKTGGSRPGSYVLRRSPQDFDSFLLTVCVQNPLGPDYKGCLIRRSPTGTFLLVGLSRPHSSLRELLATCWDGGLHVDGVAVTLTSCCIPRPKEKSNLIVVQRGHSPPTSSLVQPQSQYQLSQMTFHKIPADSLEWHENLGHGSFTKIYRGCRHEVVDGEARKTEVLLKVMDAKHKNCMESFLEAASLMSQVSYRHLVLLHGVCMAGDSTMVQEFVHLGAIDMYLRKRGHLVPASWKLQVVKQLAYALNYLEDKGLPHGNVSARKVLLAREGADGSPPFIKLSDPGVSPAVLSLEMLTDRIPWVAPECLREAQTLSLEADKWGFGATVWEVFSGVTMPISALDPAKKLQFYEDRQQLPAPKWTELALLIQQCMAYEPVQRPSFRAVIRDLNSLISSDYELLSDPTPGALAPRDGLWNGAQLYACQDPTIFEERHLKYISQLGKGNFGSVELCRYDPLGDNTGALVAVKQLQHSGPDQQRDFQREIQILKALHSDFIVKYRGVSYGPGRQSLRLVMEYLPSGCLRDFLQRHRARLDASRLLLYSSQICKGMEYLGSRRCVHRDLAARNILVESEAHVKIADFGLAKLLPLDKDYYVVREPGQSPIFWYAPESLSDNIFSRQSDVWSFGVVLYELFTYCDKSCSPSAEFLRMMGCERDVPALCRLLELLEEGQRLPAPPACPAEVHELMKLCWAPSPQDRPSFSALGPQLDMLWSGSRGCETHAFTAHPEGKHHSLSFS
Kind of assay: JAK1, JAK2, and JAK3 Activity. As for the experimental part: as §1

Assay [4] can be described thus: JAK1, JAK2, and JAK3 Activity.

Sequence of Tyrosine-protein kinase JAK1 (P23458 whole entry): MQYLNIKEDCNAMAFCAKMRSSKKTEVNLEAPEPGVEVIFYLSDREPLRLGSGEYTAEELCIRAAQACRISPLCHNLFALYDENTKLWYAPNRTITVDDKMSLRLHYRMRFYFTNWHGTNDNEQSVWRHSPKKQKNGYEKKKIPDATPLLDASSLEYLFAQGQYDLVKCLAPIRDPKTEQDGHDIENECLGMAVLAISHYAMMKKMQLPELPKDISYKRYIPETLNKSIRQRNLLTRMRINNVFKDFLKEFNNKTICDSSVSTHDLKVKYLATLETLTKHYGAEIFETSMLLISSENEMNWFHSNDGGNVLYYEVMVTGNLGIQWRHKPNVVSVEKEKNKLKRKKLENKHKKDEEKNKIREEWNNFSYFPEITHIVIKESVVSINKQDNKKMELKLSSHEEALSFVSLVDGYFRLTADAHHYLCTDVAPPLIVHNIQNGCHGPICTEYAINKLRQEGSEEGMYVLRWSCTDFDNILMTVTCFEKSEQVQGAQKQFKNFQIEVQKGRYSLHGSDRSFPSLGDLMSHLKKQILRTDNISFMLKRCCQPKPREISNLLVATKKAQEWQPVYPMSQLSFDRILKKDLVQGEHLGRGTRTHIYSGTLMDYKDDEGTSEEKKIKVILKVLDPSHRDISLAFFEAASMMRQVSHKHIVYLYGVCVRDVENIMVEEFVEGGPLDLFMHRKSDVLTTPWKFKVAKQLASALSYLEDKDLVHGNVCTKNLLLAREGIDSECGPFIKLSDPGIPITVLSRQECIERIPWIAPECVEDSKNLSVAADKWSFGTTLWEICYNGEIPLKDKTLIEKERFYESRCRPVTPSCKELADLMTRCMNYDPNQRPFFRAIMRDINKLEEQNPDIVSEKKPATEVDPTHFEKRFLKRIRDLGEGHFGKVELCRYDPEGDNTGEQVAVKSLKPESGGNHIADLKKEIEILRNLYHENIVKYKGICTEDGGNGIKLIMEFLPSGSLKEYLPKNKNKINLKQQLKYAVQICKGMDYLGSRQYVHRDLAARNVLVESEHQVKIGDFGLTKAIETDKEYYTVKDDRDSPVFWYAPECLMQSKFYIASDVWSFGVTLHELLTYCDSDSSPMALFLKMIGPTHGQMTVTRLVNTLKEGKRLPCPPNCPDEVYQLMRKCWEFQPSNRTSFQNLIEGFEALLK
Sequence of Tyrosine-protein kinase JAK2 (O60674 whole entry): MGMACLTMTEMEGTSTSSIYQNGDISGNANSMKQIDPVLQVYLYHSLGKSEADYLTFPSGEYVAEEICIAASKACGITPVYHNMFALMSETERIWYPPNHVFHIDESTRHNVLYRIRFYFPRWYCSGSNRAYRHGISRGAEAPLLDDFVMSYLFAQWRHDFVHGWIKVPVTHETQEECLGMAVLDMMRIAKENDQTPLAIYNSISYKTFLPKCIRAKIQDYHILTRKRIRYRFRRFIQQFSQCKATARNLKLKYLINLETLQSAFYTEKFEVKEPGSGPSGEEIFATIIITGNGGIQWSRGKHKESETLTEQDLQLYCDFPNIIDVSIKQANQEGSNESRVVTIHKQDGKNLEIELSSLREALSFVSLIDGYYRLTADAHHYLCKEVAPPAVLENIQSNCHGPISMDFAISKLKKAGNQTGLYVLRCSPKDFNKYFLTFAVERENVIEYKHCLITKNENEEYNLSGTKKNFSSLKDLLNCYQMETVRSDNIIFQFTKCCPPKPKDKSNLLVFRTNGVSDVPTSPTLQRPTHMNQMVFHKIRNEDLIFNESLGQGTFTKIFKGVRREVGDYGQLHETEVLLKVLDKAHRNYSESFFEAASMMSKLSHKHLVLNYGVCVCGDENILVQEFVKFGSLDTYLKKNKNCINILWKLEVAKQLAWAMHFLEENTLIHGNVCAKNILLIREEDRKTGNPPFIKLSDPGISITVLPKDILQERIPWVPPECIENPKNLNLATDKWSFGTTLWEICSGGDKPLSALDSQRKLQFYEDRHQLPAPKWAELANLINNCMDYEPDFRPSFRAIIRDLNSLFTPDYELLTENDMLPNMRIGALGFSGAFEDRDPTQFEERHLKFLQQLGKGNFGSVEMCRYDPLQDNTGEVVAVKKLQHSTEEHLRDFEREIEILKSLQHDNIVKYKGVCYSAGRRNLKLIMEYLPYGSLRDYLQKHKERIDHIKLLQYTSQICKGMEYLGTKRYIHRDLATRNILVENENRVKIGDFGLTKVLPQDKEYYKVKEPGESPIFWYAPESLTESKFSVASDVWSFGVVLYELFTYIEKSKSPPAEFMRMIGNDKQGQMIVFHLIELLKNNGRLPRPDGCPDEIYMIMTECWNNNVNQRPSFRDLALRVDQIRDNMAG

Usually IC50 stands for the concentration that inhibits the measured activity by half. Read a high IC50 as weaker potency. In the case of `CCC(=O)c1cnc(Nc2cnc(O[C@@H]3CCN(CC)C3)cn2)cc1Nc1cccc(-c2ncn(C)n2)c1OC` [US20230295119, Compound 18DDD], the IC50 in assay [1], in assay [2] and in assay [3] was above 500 nM each time.
Consider `CCC(=O)c1cnc(Nc2cc(C(C)NC)ncn2)cc1Nc1cccc(-c2ncn(C)n2)c1OC` (configuration not stated) [US20230295119, Compound 9PPPP], for which the IC50 in assay [4] is below 5 nM; in assay [1], above 500 nM; in assay [3], above 500 nM.
As for `CCC(=O)c1cnc(Nc2cnc(OCCN3CCN(C)CC3)cn2)cc1Nc1cccc(-c2ncn(C)n2)c1OC` [US20230295119, Compound 18FFF], the IC50 in assay [4] is below 5 nM; in assay [1], above 500 nM; in assay [2] it was above 500 nM; in assay [3] it was above 500 nM.
With `CCC(=O)c1cnc(Nc2ccc(CN3CCN(C)CC3)nn2)cc1Nc1cccc(-c2ncn(C)n2)c1OC` [US20230295119, Compound 9PPP], the IC50 in assay [1] and in assay [3] was above 500 nM each time.
